# Results reported in US7312237B2, “Combination of epothilone analogs and chemotherapeutic agents for the treatment of prolilferative diseases” (Bristol-Myers Squibb Co., priority 2001, dated 2007).
# Assays:
# [1] = In vivo antitumor testing, A2780 in nude mice; conditions: nude, mouse, in vivo, iv, Compound 1 IV, read-out: OD (optimal dose or MTD)
# Protocol: (§1) All tumor implants for efficacy testing were subcutaneous (sc).
# (§2) The MTD was frequently equivalent to OD. When death occurs, the day of death was recorded.
# (§3) And, Log cell kill=T−C÷(3.32×TVDT)
# [2] = system: A2780 human ovarian carcinoma; assay: In vivo antitumor testing, A2780 in nude mice
# Protocol: as §1, §2, §3
# [3] = human, in vivo
# [4] = system: LS174T human colon carcinoma; assay: In vivo antitumor testing, LS174T xenograft; design: species or system nude mice; conditions: Expt. R578, IV q4dx3, OD 16 mg/kg
# Protocol: as §1, §2, §3
# [5] = In vivo antitumor testing, LS174T xenograft; design: species or system nude mice; conditions: nude, mouse, in vivo, iv; read-out: OD (optimal dose or MTD)
# Protocol: as §1, §2, §3
# [6] = system: M5076 murine fibrosarcoma; assay: In vivo antitumor testing, M5076 murine sarcoma; design: species or system mice
# Protocol: (§4) The murine fibrosarcoma M5076 was also employed.
# (§5) The human tumors were maintained in Balb/c nu/nu nude mice. M5076 was maintained in C57BL/6 mice. Tumors were propagated as subcutaneous transplants in the appropriate mouse strain using tumor fragments obtained from donor mice.
# as §1, §2, §3
# [7] = In vivo antitumor testing, M5076 murine sarcoma; design: species or system mice; conditions: (C57Bl/6×DBA/2)F1 hybrid, mouse, in vivo, iv, Compound 1 IV, read-out: OD (optimal dose or MTD)
# Protocol: as §4, §5, §1, §2, §3
# [8] = Stability as a function of pH; type: physicochemical; conditions: neutral pH versus low pH
# in vivo = conditions: nude, mouse, in vivo, iv, Compound 1 IV
# From the text: The following human tumors were used: A2780 ovarian, A2780Tax ovarian (established from cells obtained from Dr. Antonio Fojo, Medicine Branch, NCI, Bethesda, Md.), HCT116/VM46 colon, Pat-7 ovarian (established from a tumor biopsy provided by Dr. Thomas Hamilton, Fox Chase Cancer Center, Philadelphia, Pa.) from a patient who had developed resistance to TAXOL®). The murine fibrosarcoma M5076 was also employed.
# (§6) The following tumors were passaged in the indicated host strain of mouse: murine M5076 fibrosarcoma (M5076) in C57Bl/6 mice; human A2780 and Pat-7 ovarian carcinomas, HCT116, HCT116/VM46 and LS174T colon carcinoma, Pat-21 breast carcinoma in nude mice. Tumor passage occurred biweekly for murine tumors and approximately every two to eight weeks for the various human tumor lines. With regard to efficacy testing, M5076 tumors were implanted in (C57Bl/6×DBA/2)F1 hybrid mice, and human tumors were implanted in nude mice. All tumor implants for efficacy testing were subcutaneous (sc).
# (§7) The required number of animals needed to detect a meaningful response were pooled at the start of the experiment and each was given a subcutaneous implant of a tumor fragment (·50 mg) with a 13-gauge trocar. For treatment of early-stage tumors, the animals were again pooled before distribution to the various treatment and control groups. For treatment of animals with advanced-stage disease, tumors were allowed to grow to the predetermined size window (tumors outside the range were excluded) and animals were evenly distributed to various treatment and control groups. Treatment of each animal was based on individual body weight. Treated animals were checked daily for treatment related toxicity/mortality. Each group of animals was weighed before the initiation of treatment (Wt1) and then again following the last treatment dose (Wt2). The difference in body weight (Wt2−Wt1) provides a measure of treatment-related toxicity.
# (§8) Tumor weights (mg) were estimated from the formula: Tumor weight=(length×width^2)÷2
# Antitumor activity was evaluated at the maximum tolerated dose (MTD) which is defined as the dose level immediately […] which excessive toxicity (i.e. more than one death) occurred. […] When death occurs, the day of death was recorded.
# Tumor response end-point was expressed in terms of tumor growth delay (T-C value), defined as the difference in time (days) required for the treated tumors (T) to reach a predetermined target size compared to those of the control group (C).
# To estimate tumor cell kill, the tumor volume doubling time was first calculated with the formula:
# TVDT=Median time (days) for control tumors to reach target size−Median time (days) for control tumors to reach half the target size
# HCT116/VM46 is an MDR-resistant colon carcinoma developed from the sensitive HCT116 parent line.
# Pat-21 breast carcinoma = conditions: Expt. R667, IV q4dx3; 41, 68, OD 10 mg/kg; interim analysis, study in progress
# From the text: as §6, §7, §8
# Antitumor activity was evaluated at the maximum tolerated dose (MTD) which is defined as the dose level immediately […] which excessive toxicity (i.e. more than one death) occurred. […] When death occurs, the day of death was recorded. […]
# To estimate tumor cell kill, the tumor volume doubling time was first calculated with the formula: […]
# HCT-116 = assay: In vitro cytotoxicity (MTS assay), HCT-116; type: cell-based; conditions: Homo sapiens; HCT-116, 72 hour incubation
# Protocol: HCT116 human carcinoma cell lines and HCT116/VM46 cells, a MDR variant, were maintained in McCoy's 5A medium (GIBCO) and 10% heat inactivated fetal bovine serum (GIBCO). A2780 human ovarian carcinoma cells and A2780Tax cells obtained from Dr. Antonio Fojo (NCI, Bethesda, Md.) were maintained in IMEM (GIBCO) and 10% fetal bovine serum (GIBCO).
# The in vitro cytotoxicity was assessed in tumor cells by a tetrazolium-based colorimetric assay which takes advantage of the metabolic conversion of MTS (3-(4,5-dimethylthiazol-2-yl)-5-(3-carboxymethoxyphenyl)-2-(4-sulphenyl)-2H-tetrazolium, inner salt) to a reduced form that absorbs light at 492 nm. Cells were seeded 24 hr prior to drug addition. Following a 72 hour incubation at 37° C. with serially diluted compound, MTS, in combination with the electron coupling agent phenazine methosulfate, was added to the cells. The incubation was continued for 3 hours, then the absorbancy of the medium at 492 nm was measured with a spectrophotometer to obtain the number of surviving cells relative to control populations. The results are expressed as median cytotoxic concentrations (IC50 values).
# [9] = system: HCT116 human colon carcinoma cell line; assay: Clonogenic cell colony-formation assay (single agent and combination, isobologram); type: cell-based; conditions: concentration killing clonogenic HCT-116 cells by 90%
# From the text: Analysis of the effects of combination treatment in vitro was by the isobologram and multiplicity methods described by Stephens and Steel
# The success of an anticancer agent is dependent not only on its antitumor activity as a single agent but also on its ability to combine successfully with other antineoplastic drugs.
# [10] = Expt. 89, IV q2dx5, OD 6.3 mg/kg
# [11] = Expt. 115, IV q2dx5, OD 6.3 mg/kg
# [12] = Expt. 115, IV q4dx3, OD 16 mg/kg
smiles,measurement,setting,value
"C/C(=C\c1csc(C)n1)[C@@H]1C[C@@H]2O[C@]2(C)CCC[C@H](C)[C@H](O)[C@@H](C)C(=O)C(C)(C)[C@@H](O)CC(=O)N1 (relative stereo) [Compound 1, [1S-[1R*,3R*(E),7R*,10S*,11R*,12R*,16S*]]-7,11-dihydroxy-8,8,10,12,16-pentamethyl-3-[1-methyl-2-(2-methyl-4-thiazolyl)ethenyl]-4-aza-17-oxabicyclo[14.1.0] heptadecane-5,9-dione]",MTD,[1]; q2dx5,6.3 mg/kg
same,MTD,[1]; q4dx3,16 mg/kg
same,OD (optimal dose or MTD),"[2]; Compound 1 IV, q2dx5",4.8 mg/kg
same,LCK (gross log cell kill),[2]; [10],> 4.8
same,cures/total,[2]; [10],3/7
same,LCK (gross log cell kill),"[2]; Expt. 92, IV q2dx5, OD 6.3 mg/kg",2
same,LCK (gross log cell kill),"[2]; Expt. 111, IV q2dx5, OD 4.8 mg/kg",3.1
same,LCK (gross log cell kill),[2]; [11],2.4
same,cures/total,[2]; [11],0/8
same,LCK (gross log cell kill),[2]; [12],>5.3
same,cures/total,[2]; [12],3/7
same,dose recommended for Phase II clinical trials,[3],50 mg/m2
same,LCK (gross log cell kill),[4],2.3
same,MTD,[5],16 mg/kg
same,LCK (gross log cell kill),"[6]; Expt. 159, IV q2dx5, OD 8.4 mg/kg",0.5
same,LCK (gross log cell kill),"[6]; Expt. 162, IV q2dx5, OD 8.4 mg/kg",0.7
same,LCK (gross log cell kill),"[6]; Expt. 172, IV q4dx3, OD 24 mg/kg",1.0
same,MTD,[7]; q2dx5,8.4 mg/kg
same,MTD,[7]; q4dx3,24 mg/kg
same,stability versus pH,[8],significantly more stable at neutral pH than at low pH
same,MTD,"in vivo; OD (optimal dose or MTD), q2dx5",4.8 mg/kg
same,MTD,"in vivo; OD (optimal dose or MTD; maximum tolerated regimen), q4dx3",15 mg/kg
same,LCK (gross log cell kill),Pat-21 breast carcinoma,>1.5^5
same,IC50,HCT-116,2.6 nM
same,IC90,[9],~7.5 nM
